Test results: patent US20230355597A1, “COMPOUNDS, COMPOSITIONS, AND METHODS FOR THE TREATMENT AND PREVENTION OF AVIAN PATHOGENIC E. COLI (APEC)” (OHIO STATE INNOVATION FOUNDATION, priority 2018, published 2023)

Key:
APEC O78 = experiment: Loss of 260/280 nm absorbing materials assay; format: cell-based, avian pathogenic Escherichia coli (APEC); details: 2X MBC, 1 h, *P<0.05 vs DMSO
[1] = test system: AI-2 activity of APEC O15; experiment: AI-2 bioluminescence indicator assay (V. harveyi BB170); details: APEC O15, 100 µM
Rif^r APEC O78 [2] = experiment: Wax moth (Galleria mellonella) larva infection model (AI-2 inhibitors); details: 72 h post treatment
[3] = test system: AI-2 activity of APEC O109; experiment: AI-2 bioluminescence indicator assay (V. harveyi BB170); details: APEC O109, 100 µM
[4] = test system: AI-2 activity of APEC O18; experiment: as above; details: APEC O18, 100 µM
AI-2 activity of APEC O8 = experiment: as above; details: APEC O8, 100 µM
AI-2 activity of APEC O2 = experiment: as above; details: APEC O2, 100 µM
[5] = test system: AI-2 activity of APEC O35; experiment: as above; details: APEC O35, 100 µM
[6] = test system: AI-2 activity of APEC O78; experiment: as above; details: APEC O78, 100 µM
AI-2 activity of APEC O1 = experiment: as above; details: APEC O1, 100 µM
Rif^r APEC O78 [7] = experiment: In vivo screening of quorum sensing inhibitors in APEC infected broiler chickens
[8] = test system: AI-2 activity of APEC O115; experiment: AI-2 bioluminescence indicator assay (V. harveyi BB170); details: APEC O115, 100 µM

| Structure (SMILES) | Absorbance 260 (APEC O78; 260 nm absorbing material in supernatant) | Absorbance 280 (APEC O78; 280 nm absorbing material in supernatant) | Inhibition % of AI-2 activity [1] | larval death (Rif^r APEC O78 [2]) | Inhibition % of AI-2 activity [3] | Inhibition % of AI-2 activity [4] | Inhibition % of AI-2 activity (AI-2 activity of APEC O8) | Inhibition % of AI-2 activity (AI-2 activity of APEC O2) | Inhibition % of AI-2 activity [5] | Inhibition % of AI-2 activity [6] | Inhibition % of AI-2 activity (AI-2 activity of APEC O1) | reduction in chicken mortality (Rif^r APEC O78 [7]; DMSO control mortality normalized to 100%) | Mortality rate (%) (Rif^r APEC O78 [7]; oral gavage once a day, day 4 to day 8, DMSO control 66.7%) | Reduction in APEC lesions severity, Air-sacs (%) (Rif^r APEC O78 [7]; vs DMSO treated control) | Reduction in APEC lesions severity, Heart (%) (Rif^r APEC O78 [7]; vs DMSO treated control) | Reduction in APEC lesions severity, Liver (%) (Rif^r APEC O78 [7]; vs DMSO treated control) | Reduction in APEC lesions severity, Lung (%) (Rif^r APEC O78 [7]; vs DMSO treated control) | Inhibition % of AI-2 activity [8] |
| --- | --- | --- | --- | --- | --- | --- | --- | --- | --- | --- | --- | --- | --- | --- | --- | --- | --- | --- |
| O=C(O)CN(CCN(CC(=O)O)CC(=O)O)CC(=O)O [EDTA, reference compound] | 4.00* | 2.60 | – | – | – | – | – | – | – | – | – | – | – | – | – | – | – | – |
| O=C(CCN1CCN(c2ccccc2F)CC1)Nc1ccc(Br)cc1 [C7, N-(4-bromophenyl)-3-[4-(2-fluomphenyl)-1-piperazinyl]propanamide] | – | – | 36% | no larval death | 67% | 48% | 2% | 83% | 62% | 94% | 47% | did not reduce | 66.7% | 33.3% | 33.3% | 33.3% | 83.3% | 45% |
